Values after ≈ are worked out from the molar mass of the structure shown. Non-standard residues stand in square brackets, D forms with d. Residues, ends and D or L forms follow the SMILES beside them.
Assays:
E. coli ATCC25922 = format: cell-based
From the text: (§1) NET1, NET2, NET3, and NET4 peptide antibiotics were used in the experiments. For the purpose of the study, both clinical isolates Methicillin-Resistant S. aureus (MRSA), Vancomycin-resistant Enterococcus (VRE), E. coli ER2566, E. coli 13846 bacteria and ATCC strains S. aureus and E. coli bacteria were used in the MIC study. All strains used in this study have been deposited in a strain collection of the Research Laboratory of Acibadem Mehmet Ali Aydinlar University. For experiment 0.5 McFarland bacterial suspension was prepared in Müeller Hinton Broth (MHB) media. In the 96-well plate, serial dilutions of peptide antibiotics starting from 512 to 0 μg/mL were made in MHB media and added 5 µl of bacterial suspensions. After incubated overnight at 37°C, results were evaluated according to turbidity (Teh et al. [2017]). Ampicillin was used as positive controls.

E. coli ER2566 = format: cell-based
From the text: as §1

E. coli NTCC13846 = format: cell-based
From the text: as §1

S. aureus ATCC25923 = format: cell-based
From the text: as §1

S. aureus ATCC29213 = format: cell-based
From the text: as §1

MRSA = format: cell-based, Methicillin-Resistant S. aureus
From the text: as §1

VRE = format: cell-based, Vancomycin-resistant Enterococcus
From the text: as §1

Proteinase K = Proteinase K (Parengyodontium album, UniProt P06873); assay: Protease resistance, Proteinase K treatment with HPLC analysis; format: in vitro ADME; conditions: analytical HPLC
Proteinase K, sequence (P06873 106-384): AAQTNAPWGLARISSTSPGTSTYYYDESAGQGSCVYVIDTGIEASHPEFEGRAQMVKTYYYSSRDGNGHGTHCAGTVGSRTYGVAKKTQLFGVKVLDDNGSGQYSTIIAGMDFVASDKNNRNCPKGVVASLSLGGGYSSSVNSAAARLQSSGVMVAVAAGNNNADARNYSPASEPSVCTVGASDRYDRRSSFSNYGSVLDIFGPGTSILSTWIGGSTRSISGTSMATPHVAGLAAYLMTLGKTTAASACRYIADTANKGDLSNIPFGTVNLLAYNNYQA
Procedure: Proteinase K was used for testing the resistance of the designed peptides to proteases, since Proteinase K, a serine protease with broad-spectrum cleavage activity that preferentially cleaves aliphatic and aromatic amino acid residues, is widely used in the literature to determine the protease resistance of antimicrobial peptides (Lucio et al. [2017], Wang et al. [2019]). Afterwards, HPLC characterization was performed to understand the effect of Proteinase K on peptides.

erythrocytes = format: cell-based
Procedure: Hemolytic activity assays were carried out using erythrocytes, using triton X-100 as lysis control agent. Hemolytic activities were analyzed by reading each well with a plate reader spectrophotometer device at 414 nm and the % lysis rate was calculated in Microsoft Excel according to the following formula (Eren et al. [2008]). Lysis%=[OD414-OD414blank]/[OD414totallysis-OD414blank]×100

in vitro = format: cell-based
From the text: (§2) MTT Cell Proliferation Kit (Sigma), a colorimetric method, was used for this test to evaluate the damage that peptides can cause in eukaryotic cells and all cell lines used in this study have been deposited in a collection of the Research Laboratory of Acibadem Mehmet Ali Aydinlar University. The cell lines of 3T3 (ATCC CRL-1658) and HaCaT (ATCC PCS-200-011) were revived under appropriate culture conditions and made ready for the experiment. The final concentration of peptides reached 64 to 0.5 μg/mL. Samples were worked in triplicates for each concentration. Cells incubated without peptide-treatment under the same conditions were used as a control. Magainin II, a known natural AMP that has no cytotoxic effects, was used as a positive control (Bacalum and Radu [2015]). The results were analyzed by reading them with a 96-well plate reader at 550 and 690 nm.

3T3 cell line = assay: in vitro; format: cell-based
From the text: as §2

HaCaT cell line = assay: in vitro; format: cell-based
From the text: as §2

MRSA biofilm [1] = assay: Antibiofilm activity, conventional crystal violet (CV) method; format: cell-based, Methicillin-resistant S. aureus; conditions: for Peptide concentration inhibiting the biofilm at 100%, Crystal Violet: peptides added at the very beginning of culture; for concentration that could be enough to inhibit the biofilms completely: allowing for deviation of about 16.7 in non-specific CV binding
Procedure: There was 90 µL of 10^6 CFU/mL MRSA in MHB media with fructose transferred into wells. Then, 10 µL of 1:2 serial dilutions of the antimicrobial peptides (1280–0 µg/mL) was added in wells. So that, final concentrations of peptides were 128–0 µg/mL. Plates were incubated at 37°C overnight. After overnight incubation, they were analyzed with conventional CV method. For this purpose, the bacterial cultures were removed, and wells were washed with distilled water. 200 µl of 1% CV dye was added to each well and incubated at room temperature for 15 min in the dark. Then, CV dye was removed, and wells were washed with water. After dried the plate in an oven at 45–50°C, 33% acetic acid was added into wells to dissolve the dye and wells were spectrophotometrically read by Varioscan (Thermo, USA) at 590 nm (Stepanović et al. [2000]). Biofilm inhibiton rates (%) were calculated by the following formula (Liu et al. [2021]): (1-A590ofwellstreatedwithpeptides/[…])×100
Before this calculation, the values obtained from all wells were subtracted from the value from the empty wells (Blank).

MRSA biofilm [2] = assay: Antibiofilm activity, CoMIC method; format: cell-based, Methicillin-resistant S. aureus; conditions: peptides added just before the start of biofilm formation
Procedure: Ninety microliters of 0.5 McF Methicillin-resistant S. aureus (MRSA) (1.5×10^8 CFU/mL) in Congo Red Broth media with fructose was transferred into wells. Plates were incubated at 37°C. At the time just before the start of biofilm formation as optimized in Fig. 4, 10 µL of 1:2 serial dilutions of the antimicrobial peptides (2560–0 µg/mL) was added in wells. So that, final concentrations of peptides were 256–0 µg/mL. Incubation of media continued overnight. Then, wells were evaluated according to their black color formation.

S. aureus 29213 biofilm [3] = assay: Real-time monitoring of antibiofilm activity, CoMIC method; format: cell-based
Procedure: (§3) 1:2 serial dilutions of ciprofloxacine (200–0 µg/mL) and sodium hypochlorite (5–0%) were prepared in Congo Red Broth media with sucrose. S. aureus 29213 were added into culture media with a final concentration of 1×10^6 Colony-forming unit/mL (CFU/mL). All cultures were performed as triplicate and incubated at 37°C overnight and fluorescence measurements were conducted by using Varioscan (Thermo, USA). The excitation/emission wavelengths were used as 525/625 nm. As a replica plate, bacteria in the same broth media, except Congo Red were cultured and analyzed with conventional Crystal Violet (CV) method. For this purpose, the bacterial cultures were removed, and wells were washed with distilled water. There was 200 µl of 1% CV dye added to each well and incubated at room temperature for 15 min in the dark. Then, CV dye was removed, and wells were washed with water. After the plate was dry, 33% acetic acid was added into wells to dissolve the dye and wells were spectrophotometrically read by Varioscan (Thermo, USA) at 590 nm (Stepanović et al. [2000]).

S. aureus 29213 biofilm [4] = assay: Antibiofilm activity, crystal violet (CV) replica plate; format: cell-based; conditions: CV method
Procedure: as §3

[5] = S. aureus 29213, added at the very beginning of the biofilm culture
[6] = S. aureus 29213, added just before the start of biofilm formation
[7] = S. aureus 29213, added in the very beginning
[8] = S. aureus 29213, added just before biofilm formation

Row | Structure (SMILES) | MIC (E. coli ATCC25922) | MIC (E. coli ER2566) | MIC (E. coli NTCC13846) | MIC (S. aureus ATCC25923) | MIC (S. aureus ATCC29213) | MIC (MRSA) | MIC (VRE) | resistance to proteases (HPLC after proteinase K treatment) (Proteinase K) | HC50 value as times the MIC value (erythrocytes) | therapeutic index for hemolytic activities (erythrocytes) | IC50 (in vitro; human) | IC50 (in vitro; mouse) | therapeutic index for cytotoxic activities (3T3 cell line) | IC50 value as times the MIC value (HaCaT cell line) | therapeutic index for cytotoxic activities (HaCaT cell line) | Peptide concentration inhibiting the biofilm at 100%, Crystal Violet (MRSA biofilm [1]) | Peptide concentration inhibiting the biofilm at 100%, CoMIC (MRSA biofilm [2]) | concentration that could be enough to inhibit the biofilms completely (MRSA biofilm [1]; CV method) | MIC for biofilms (S. aureus 29213 biofilm [3]; [5]) | MIC for biofilms (S. aureus 29213 biofilm [3]; [6]) | other results
1 | CC(C)C[C@H](NC(=O)[C@H](CC(C)C)NC(=O)[C@H](CC(C)C)NC(=O)[C@H](CCCNC(=N)N)NC(=O)[C@H](CC(C)C)NC(=O)[C@H](CC(C)C)NC(=O)[C@H](CCCNC(=N)N)NC(=O)[C@H](CCCNC(=N)N)NC(=O)[C@H](CC(C)C)NC(=O)[C@H](CC(C)C)NC(=O)[C@H](CCCNC(=N)N)NC(=O)[C@H](CC(C)C)NC(=O)[C@H](CC(C)C)NC(=O)[C@H](CC(C)C)NC(=O)[C@@H](N)CCCNC(=N)N)C(=O)N[C@@H](CCCNC(=N)N)C(N)=O [NET2, RLLLRLLRRLLRLLLR-NH2] (H-RLLLRLLRRLLRLLLR-NH2; N-terminus assumed) | 64 µg/mL (≈ 30.7 µM) | 4 µg/mL (≈ 1.92 µM) | 64 µg/mL (≈ 30.7 µM) | 32 µg/mL (≈ 15.3 µM) | 64 µg/mL (≈ 30.7 µM) | 64 µg/mL (≈ 30.7 µM) | 2 µg/mL (≈ 0.959 µM) | completely degraded | 2–8 times | 1 | > 128 µg/mL | > 128 µg/mL | 2 | 2-4 times | 2 | 128 µg/mL | >256 µg/mL |  |  |  | concentration that provided over 50% biofilm inhibition (MRSA biofilm [1]; CV method): 64 µg/mL
2 | CC(C)C[C@H](NC(=O)[C@H](N)CCCNC(=N)N)C(=O)N[C@@H](CC(C)C)C(=O)N[C@@H](CC(C)C)C(=O)N[C@H](CCCNC(=N)N)C(=O)N[C@@H](CC(C)C)C(=O)N[C@@H](CC(C)C)C(=O)N[C@H](CCCNC(=N)N)C(=O)N[C@H](CCCNC(=N)N)C(=O)N[C@@H](CC(C)C)C(=O)N[C@@H](CC(C)C)C(=O)N[C@H](CCCNC(=N)N)C(=O)N[C@@H](CC(C)C)C(=O)N[C@@H](CC(C)C)C(=O)N[C@@H](CC(C)C)C(=O)N[C@H](CCCNC(=N)N)C(N)=O [NET3, RLLLRLLRRLLRLLLR-NH2] (H-[dR]LLL[dR]LL[dR][dR]LL[dR]LLL[dR]-NH2; N-terminus assumed) | 4 µg/mL (≈ 1.92 µM) | 0.5 µg/mL (≈ 0.24 µM) | 2 µg/mL (≈ 0.959 µM) | 2 µg/mL (≈ 0.959 µM) | 2 µg/mL (≈ 0.959 µM) | 2 µg/mL (≈ 0.959 µM) | 0.5 µg/mL (≈ 0.24 µM) | not fractionated by proteases | 16–32 times | 32 | 64 µg/mL (≈ 30.7 µM) | 32 µg/mL (≈ 15.3 µM) | 16 | 16-32 times | 32 | 4 µg/mL | 128 µg/mL | less than 1 µg/mL |  |  | 
3 | O=C(O)c1cn(C2CC2)c2cc(N3CCNCC3)c(F)cc2c1=O [ciprofloxacin] |  |  |  |  |  |  |  |  |  |  |  |  |  |  |  |  |  |  | 50 µg/mL | > 200 µg/mL | MIC for biofilms (S. aureus 29213 biofilm [4]; [7]): 12.5 µg/mL; MIC for biofilms (S. aureus 29213 biofilm [4]; [8]): > 200 µg/mL
4 | CC(C)C[C@@H](NC(=O)[C@H](N)CCCNC(=N)N)C(=O)N[C@H](CC(C)C)C(=O)N[C@H](CC(C)C)C(=O)N[C@H](CCCNC(=N)N)C(=O)N[C@H](CC(C)C)C(=O)N[C@H](CC(C)C)C(=O)N[C@H](CCCNC(=N)N)C(=O)N[C@H](CCCNC(=N)N)C(=O)N[C@H](CC(C)C)C(=O)N[C@H](CC(C)C)C(=O)N[C@H](CCCNC(=N)N)C(=O)N[C@H](CC(C)C)C(=O)N[C@H](CC(C)C)C(=O)N[C@H](CC(C)C)C(=O)N[C@H](CCCNC(=N)N)C(N)=O [NET4, RLLLRLLRRLLRLLLR-NH2] (H-[dR][dL][dL][dL][dR][dL][dL][dR][dR][dL][dL][dR][dL][dL][dL][dR]-NH2; N-terminus assumed) | 8 µg/mL (≈ 3.84 µM) | 1 µg/mL (≈ 0.479 µM) | 32 µg/mL (≈ 15.3 µM) | 16 µg/mL (≈ 7.67 µM) | 16 µg/mL (≈ 7.67 µM) | 16 µg/mL (≈ 7.67 µM) | 2 µg/mL (≈ 0.959 µM) | not fractionated by proteases |  | 4 | > 128 µg/mL | > 128 µg/mL | 8 | 4-16 times | 8 | 128 µg/mL | >256 µg/mL | 64 µg/mL |  |  | cytotoxicity at 64 µg/ml (in vitro; human): > 50%
5 | [Na+].[O-]Cl [sodium hypochlorite] |  |  |  |  |  |  |  |  |  |  |  |  |  |  |  |  |  |  | 1.25% | 1.25% | MIC for biofilms (S. aureus 29213 biofilm [4]; [7]): 1.25%; MIC for biofilms (S. aureus 29213 biofilm [4]; [8]): 5%

From publication PMC11068671, “New-generation biofilm effective antimicrobial peptides and a real-time anti-biofilm activity assay: CoMIC” (Applied Microbiology and Biotechnology, 2024)
